Data taken from US6433167B1, “Triazolo-1,4-diazepine compounds and medicinal composition containing the same” (Nikken Chemicals Co., Ltd., priority 1997, dated 2002).

Columns and labels:
rats or mice = assay: Acute toxicity test; type: in vivo; details: administered intravenously, 10 mg/kg
[1] = target: T1, TxA2 synthesis in human blood platelet microsomes (Homo sapiens, UniProt P24557); assay: TxA2 synthesis inhibiting action test (TxB2 by EIA); type: biochemical; details: test compound final concentration 10^−7M, human blood platelet microsomes 50 μg protein/ml, prostaglandin H2 substrate
T1 construct: containing human blood platelet microsomes (50 μg protein/ml); from tissue; host or cells: human blood platelet microsomes
T1 sequence (P24557 1-533): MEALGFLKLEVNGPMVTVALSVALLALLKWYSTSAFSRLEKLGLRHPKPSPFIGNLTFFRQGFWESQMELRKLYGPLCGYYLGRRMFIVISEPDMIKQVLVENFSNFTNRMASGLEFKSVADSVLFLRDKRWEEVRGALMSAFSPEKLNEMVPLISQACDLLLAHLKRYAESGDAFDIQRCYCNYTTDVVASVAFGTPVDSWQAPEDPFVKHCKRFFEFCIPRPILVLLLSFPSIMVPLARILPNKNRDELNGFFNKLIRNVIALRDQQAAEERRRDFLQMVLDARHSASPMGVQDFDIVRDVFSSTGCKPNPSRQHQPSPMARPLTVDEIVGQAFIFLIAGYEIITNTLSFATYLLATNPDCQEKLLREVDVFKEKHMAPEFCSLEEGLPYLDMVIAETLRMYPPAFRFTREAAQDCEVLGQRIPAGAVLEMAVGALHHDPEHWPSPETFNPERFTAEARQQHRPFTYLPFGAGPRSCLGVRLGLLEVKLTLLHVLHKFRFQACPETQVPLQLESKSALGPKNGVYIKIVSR
Protocol: 1 ml of a buffer (20 MM Tris-HCl buffer, 1 mM EDTA, pH 7.5) containing human blood platelet microsomes (50 μg protein/ml) and the test compound (final concentration 10^−7M) was agitated, then incubated at 0° C. for 30 minutes. To this was added prostaglandin H2 (100 ng/2 μl). This was incubated at 23° C. for 3 minutes to cause a reaction. Next, 1M hydrochloric acid was added to make the solution acidic and stop the reaction, then this was neutralized by 1M Tris-Base and centrifuged at 3000 rpm for 20 minutes. The amount of the TxB2 in the supernatant was measured by the EIA method (Cayman Co. kit).
The test results are shown in Table II. a Further, as controls, UK-74,505 having a PAF antagonistic action and OKY-046 having a TxA2 synthesis inhibiting action were used.

[2] = system: platelet activating factor (PAF)-induced aggregation of platelet rich plasma (PRP); assay: PAF antagonistic action test (PAF-induced platelet aggregation in platelet rich plasma); type: cell-based, Japanese white rabbits; details: test compound final concentration 10^−7M; PAF final concentration 17 nM; rabbit PRP, 37° C.
Protocol: Japanese white rabbits (2.5 to 3.0 kg, Clean Experimental Animal Center) were used. Nine volumes of blood were taken with respect to one volume of 3.8% sodium citrate from the carotid under anesthesia by pentobarbitol. This was centrifuged at 1000 rpm and room temperature for 10 minutes. The top layer was used as the platelet rich plasma (PRP). The lower layer was further centrifuged at 3000 rpm and room temperature for 10 minutes to obtain the platelet poor plasma (PPP).
5 μl (final concentration 10^−7M) of the test compound was added to 90 μl of PRP. This was incubated at 37° C. for 3 minutes, then a platelet activating factor (PAF, final concentration 17 nM) was added to cause aggregation and the aggregation reaction was measured for 5 minutes using an aggrigometer (MC Medical, PAT-606).

| Compound | Deaths after intravenous administration (rats or mice) | TxA2 synthesis inhibiting action Rate of suppression at 10^−7 M (%) [1] [%] | PAF antagonistic action Rate of suppression at 10^−7 M (%) [2] [%] | inhibition at 0.1 µM ([1]; read-out: TxA2 synthesis inhibiting action Rate of suppression at 10^−7 M (%)) [%] |
| --- | --- | --- | --- | --- |
| CCOC(=O)CCCCON=C(c1ccc(COCC(=O)N2CCc3c(sc4c3C(c3ccccc3Cl)=NC(C)c3nnc(C)n3-4)C2)cc1)c1cccnc1 (mixture of isomers) [Compound 6, 6-(2-Chlorophenyl)-3-[4-[((E/Z)-4-ethoxycarbonylbutyloxyimino)(3-pyridyl)methyl]phenylmethyloxymethylcarbonyl]-8,11-dimethyl-2,3,4,5-tetrahydro-8H-pyrido[4′,3′:4,5]thieno[3,2-f][1,2,4]triazolo[4,3-a][1,4]diazepine] | no deaths were observed | 75.6 | 79.8 | – |
| CCOC(=O)CCCCON=C(c1cccnc1)c1cccc(CCCC(=O)N2CCc3c(sc4c3C(c3ccccc3Cl)=NC(C)c3nnc(C)n3-4)C2)c1 (mixture of isomers) [Compound 5, 6-(2-Chlorophenyl)-3-[3-[3-[((E/Z)-4-ethoxycarbonylbutyloxyimino)(3-pyridyl)methyl]phenyl]propylcarbonyl]-8,11-dimethyl-2,3,4,5-tetrahydro-8H-pyrido[4′,3′:4,5]thieno[3,2-f][1,2,4]triazolo[4,3-a][1,4]diazepine] | – | 40.3 | 95.5 | – |
| CCOC(=O)C1=C(c2ccc(-n3c(C)nc4cnccc43)cc2)NC(C)=C(C(=O)Nc2ccccn2)C1c1ccccc1Cl (centres unmarked) [UK-74,505, reference compound] | – | 0 | 89.0 | – |
| CCOC(=O)CCCCON=C(c1cccnc1)c1ccccc1C(=O)N1CCc2c(sc3c2C(c2ccccc2Cl)=NC(C)c2nnc(C)n2-3)C1 (mixture of isomers) [Compound 1, 6-(2-Chlorophenyl)-3-[2-[((E/Z)-4-ethoxycarbonylbutyloxyimino)(3-pyridyl)methylene]phenylcarbonyl]-8,11-dimethyl-2,3,4,5-tetrahydro-8H-pyrido[4′,3′:4,5]thieno[3,2-f][1,2,4]triazolo[4,3-a][1,4]diazepine] | – | – | 82.0 | 53 |
| Cc1nnc2n1-c1sc3c(c1C(c1ccccc1Cl)=NC2C)CCN(Cc1cccc(C(=NOCCCCC(=O)O)c2cccnc2)c1)C3 (mixture of isomers) [Compound 8, 6-(2-Chlorophenyl)-3-[3-[((E/Z)-4-carboxydibutyloxyimino)(3-pyridyl)methyl]phenylmethyl]-8,11-dimethyl-2,3,4,5-tetrahydro-8H-pyrido[4′,3′:4,5]thieno[3,2-f][1,2,4]triazolo[4,3-a][1,4]diazepine] | – | 81.7 | 52.0 | – |
| CCOC(=O)CCCCON=C(c1ccc(CC(=O)N2CCc3c(sc4c3C(c3ccccc3Cl)=NC(C)c3nnc(C)n3-4)C2)cc1)c1cccnc1 (mixture of isomers) [Compound 4, 6-(2-Chlorophenyl)-3-[4-[((E/Z)-4-ethoxycarbonylbutyloxyimino)(3-pyridyl)methyl]phenylmethylcarbonyl]-8,11-dimethyl-2,3,4,5-tetrahydro-8H-pyrido[4′,3′:4,5]thieno[3,2-f](1,2,4]triazolo[4,3-a][1,4]diazepine] | no deaths were observed | 79.6 | 94.6 | – |
| CCOC(=O)CCCCC=C(c1ccc(CN2CCc3c(sc4c3C(c3ccccc3Cl)=NC(C)c3nnc(C)n3-4)C2)cc1)c1cccnc1 (mixture of isomers) [Compound 11, 6-(2-Chlorophenyl)-3-[4-[((E/Z)-5-ethoxycarbonylpentylidene)(3-pyridyl)methyl]phenylmethyl]-8,11-dimethyl-2,3,4,5-tetrahydro-8H-pyrido[4′,3′:4,5]thieno[3,2-f][1,2,4]triazolo[4,3-a][1,4]diazepine] | – | 83.7 | 94.2 | – |
| CCOC(=O)CCCCON=C(c1cccnc1)c1cccc(CN2CCc3c(sc4c3C(c3ccccc3Cl)=NC(C)c3nnc(C)n3-4)C2)c1 (mixture of isomers) [Compound 7, 6-(2-Chlorophenyl)-3-[3-[((E/Z)-4-ethoxycarbonylbutyloxyimino)(3-pyridyl)methyl]phenylmethyl]-8,11-dimethyl-2,3,4,5-tetrahydro-8H-pyrido[4′,3′:4,5]thieno[3,2-f][1,2,4]triazolo[4,3-a][1,4]diazepine] | – | 58.2 | 94.0 | – |
| O=C(O)/C=C/c1ccc(Cn2ccnc2)cc1 [OKY-046, reference compound] | – | 84.5 | 0 | – |
